Measurements published in ChEMBL document CHEMBL5303573, “Mapping human microbiome drug metabolism by gut bacteria and their genes” (Nature, 2019).

Columns and labels:
[1] = The drug is tested on Bifidobacterium longum subsp. Infantis strain: CCUG52486 for biotransformation. The drug concentrations were measured before and after a 12-h incubation by liquid-chromatography-coupled mass spectrometry (LC–MS); details: 2 µM
[2] = The drug is tested on Collinsella intestinalis strain: DSM13280 for biotransformation. The drug concentrations were measured before and after a 12-h incubation by liquid-chromatography-coupled mass spectrometry (LC–MS); details: 2 µM
[3] = The drug is tested on Eggerthella lenta strain: ATCC25559 for biotransformation. The drug concentrations were measured before and after a 12-h incubation by liquid-chromatography-coupled mass spectrometry (LC–MS); details: 2 µM
[4] = The drug is tested on Bacteroides caccae strain: ATCC43185 for biotransformation. The drug concentrations were measured before and after a 12-h incubation by liquid-chromatography-coupled mass spectrometry (LC–MS); details: 2 µM
[5] = The drug is tested on Bacteroides coprophilus strain: DSM18228 for biotransformation. The drug concentrations were measured before and after a 12-h incubation by liquid-chromatography-coupled mass spectrometry (LC–MS); details: 2 µM
[6] = The drug is tested on Bacteroides dorei strain: DSM17855 for biotransformation. The drug concentrations were measured before and after a 12-h incubation by liquid-chromatography-coupled mass spectrometry (LC–MS); details: phocaeicola dorei, 2 µM
[7] = The drug is tested on Bacteroides finegoldii strain: DSM17565 for biotransformation. The drug concentrations were measured before and after a 12-h incubation by liquid-chromatography-coupled mass spectrometry (LC–MS); details: 2 µM
[8] = The drug is tested on Bacteroides pectinophilus strain: ATCC43243 for biotransformation. The drug concentrations were measured before and after a 12-h incubation by liquid-chromatography-coupled mass spectrometry (LC–MS); details: 2 µM
[9] = The drug is tested on Bacteroides uniformis strain: ATCC8492 for biotransformation. The drug concentrations were measured before and after a 12-h incubation by liquid-chromatography-coupled mass spectrometry (LC–MS); details: 2 µM
[10] = The drug is tested on Bacteroides sp. WH2 strain: WH2 for biotransformation. The drug concentrations were measured before and after a 12-h incubation by liquid-chromatography-coupled mass spectrometry (LC–MS); details: bacteroides sp. wh2, 12 h, 2 µM
[11] = The drug is tested on Odoribacter splanchnicus strain: fecal isolate for biotransformation. The drug concentrations were measured before and after a 12-h incubation by liquid-chromatography-coupled mass spectrometry (LC–MS); details: 2 µM
[12] = The drug is tested on Anaerotruncus colihominis strain: DSM17241 for biotransformation. The drug concentrations were measured before and after a 12-h incubation by liquid-chromatography-coupled mass spectrometry (LC–MS); details: 2 µM
[13] = The drug is tested on Blautia luti strain: DSM14534 for biotransformation. The drug concentrations were measured before and after a 12-h incubation by liquid-chromatography-coupled mass spectrometry (LC–MS); type: ADME; design: dose 2 uM, timepoint 0 vs 12 hours; details: 2 µM
[14] = The drug is tested on Clostridium asparagiforme strain: DSM15981 for biotransformation. The drug concentrations were measured before and after a 12-h incubation by liquid-chromatography-coupled mass spectrometry (LC–MS); type: ADME; design: dose 2 uM, timepoint 0 vs 12 hours; details: enterocloster asparagiformis, 2 µM
[15] = The drug is tested on Clostridium ramosum strain: DSM1402 for biotransformation. The drug concentrations were measured before and after a 12-h incubation by liquid-chromatography-coupled mass spectrometry (LC–MS); details: thomasclavelia ramosa, 2 µM
[16] = The drug is tested on Clostridium scindens strain: ATCC35704 for biotransformation. The drug concentrations were measured before and after a 12-h incubation by liquid-chromatography-coupled mass spectrometry (LC–MS); details: 2 µM
[17] = The drug is tested on Clostridium symbiosum strain: ATCC14940 for biotransformation. The drug concentrations were measured before and after a 12-h incubation by liquid-chromatography-coupled mass spectrometry (LC–MS); details: 2 µM
[18] = The drug is tested on Coprococcus comes strain: ATCC27758 for biotransformation. The drug concentrations were measured before and after a 12-h incubation by liquid-chromatography-coupled mass spectrometry (LC–MS); type: ADME; design: dose 2 uM, timepoint 0 vs 12 hours; details: 2 µM
[19] = The drug is tested on Eubacterium hallii strain: DSM3353 for biotransformation. The drug concentrations were measured before and after a 12-h incubation by liquid-chromatography-coupled mass spectrometry (LC–MS); details: anaerobutyricum hallii, 2 µM
[20] = The drug is tested on Eubacterium ventriosum strain: ATCC27560 for biotransformation. The drug concentrations were measured before and after a 12-h incubation by liquid-chromatography-coupled mass spectrometry (LC–MS); type: ADME; design: dose 2 uM, timepoint 0 vs 12 hours; details: 2 µM
[21] = The drug is tested on Ruminococcus gnavus strain: ATCC29149 for biotransformation. The drug concentrations were measured before and after a 12-h incubation by liquid-chromatography-coupled mass spectrometry (LC–MS); details: mediterraneibacter gnavus, 2 µM
[22] = The drug is tested on Ruminococcus lactaris strain: ATCC29176 for biotransformation. The drug concentrations were measured before and after a 12-h incubation by liquid-chromatography-coupled mass spectrometry (LC–MS); details: 2 µM
[23] = The drug is tested on Ruminococcus torques strain: ATCC27756 for biotransformation. The drug concentrations were measured before and after a 12-h incubation by liquid-chromatography-coupled mass spectrometry (LC–MS); type: ADME; design: dose 2 uM, timepoint 0 vs 12 hours; details: 2 µM
[24] = The drug is tested on Subdoligranulum variabile strain: DSM15176 for biotransformation. The drug concentrations were measured before and after a 12-h incubation by liquid-chromatography-coupled mass spectrometry (LC–MS); details: 2 µM
[25] = The drug is tested on Escherichia coli strain: BW25113 for biotransformation. The drug concentrations were measured before and after a 12-h incubation by liquid-chromatography-coupled mass spectrometry (LC–MS); details: 2 µM
[26] = bacteroides fragilis, 12 h, 2 µM
Description: The drug is tested on Bacteroides fragilis strain: NCTC 9343 for biotransformation. The drug concentrations were measured before and after a 12-h incubation by liquid-chromatography-coupled mass spectrometry (LC–MS)

[27] = bacteroides fragilis, 12 h, 2 µM; remark: listed apart in the source
Description: The drug is tested on Bacteroides fragilis strain: 3397 (T10) for biotransformation. The drug concentrations were measured before and after a 12-h incubation by liquid-chromatography-coupled mass spectrometry (LC–MS)

[28] = bacteroides intestinalis, 12 h, 2 µM
Description: The drug is tested on Bacteroides intestinalis strain: DSM17393 for biotransformation. The drug concentrations were measured before and after a 12-h incubation by liquid-chromatography-coupled mass spectrometry (LC–MS)

[29] = bacteroides stercoris, 12 h, 2 µM
Description: The drug is tested on Bacteroides stercoris strain: ATCC43183 for biotransformation. The drug concentrations were measured before and after a 12-h incubation by liquid-chromatography-coupled mass spectrometry (LC–MS)

[30] = bacteroides thetaiotaomicron, 12 h, 2 µM
Description: The drug is tested on Bacteroides thetaiotaomicron strain: VPI-5482 for biotransformation. The drug concentrations were measured before and after a 12-h incubation by liquid-chromatography-coupled mass spectrometry (LC–MS)

[31] = bacteroides thetaiotaomicron, 12 h, 2 µM; remark: listed apart in the source
Description: The drug is tested on Bacteroides thetaiotaomicron strain: 3731 for biotransformation. The drug concentrations were measured before and after a 12-h incubation by liquid-chromatography-coupled mass spectrometry (LC–MS)

[32] = parabacteroides distasonis, 12 h, 2 µM
Description: The drug is tested on Parabacteroides distasonis strain: ATCC8503 for biotransformation. The drug concentrations were measured before and after a 12-h incubation by liquid-chromatography-coupled mass spectrometry (LC–MS)

[33] = parabacteroides johnsonii, 12 h, 2 µM
Description: The drug is tested on Parabacteroides johnsonii strain: DSM18315 for biotransformation. The drug concentrations were measured before and after a 12-h incubation by liquid-chromatography-coupled mass spectrometry (LC–MS)

[34] = segatella copri, 12 h, 2 µM
Description: The drug is tested on Prevotella copri strain: DSM18205 for biotransformation. The drug concentrations were measured before and after a 12-h incubation by liquid-chromatography-coupled mass spectrometry (LC–MS)

[35] = anaerostipes sp., 12 h, 2 µM
Description: The drug is tested on Anaerostipes sp. strain: fecal isolate for biotransformation. The drug concentrations were measured before and after a 12-h incubation by liquid-chromatography-coupled mass spectrometry (LC–MS)

[36] = enterocloster bolteae, 12 h, 2 µM
Description: The drug is tested on Clostridium bolteae strain: ATCCBAA-613 for biotransformation. The drug concentrations were measured before and after a 12-h incubation by liquid-chromatography-coupled mass spectrometry (LC–MS)

[37] = limosilactobacillus reuteri cf48-3a, 12 h, 2 µM
Description: The drug is tested on Lactobacillus reuteri CF48-3A strain: BEI HM-102 for biotransformation. The drug concentrations were measured before and after a 12-h incubation by liquid-chromatography-coupled mass spectrometry (LC–MS)

CC#CCn1c(N2CCC[C@@H](N)C2)nc2c1c(=O)n(Cc1nc(C)c3ccccc3n1)c(=O)n2C [LINAGLIPTIN]
Bacterial Biotransformation [1]: Compound NOT metabolized | Bacterial Biotransformation [2]: Compound NOT metabolized | Bacterial Biotransformation [3]: Compound NOT metabolized | Bacterial Biotransformation [4]: Compound metabolized | Bacterial Biotransformation [5]: Compound metabolized | Bacterial Biotransformation [6]: Compound metabolized | Bacterial Biotransformation [7]: Compound metabolized | Bacterial Biotransformation [8]: Compound NOT metabolized | Bacterial Biotransformation [9]: Compound metabolized | Bacterial Biotransformation [10]: Compound NOT metabolized | Bacterial Biotransformation [11]: Compound metabolized | Bacterial Biotransformation [12]: Compound NOT metabolized | Bacterial Biotransformation [13]: Compound NOT metabolized | Bacterial Biotransformation [14]: Compound NOT metabolized | Bacterial Biotransformation [15]: Compound NOT metabolized | Bacterial Biotransformation [16]: Compound NOT metabolized | Bacterial Biotransformation [17]: Compound NOT metabolized | Bacterial Biotransformation [18]: Compound NOT metabolized | Bacterial Biotransformation [19]: Compound NOT metabolized | Bacterial Biotransformation [20]: Compound NOT metabolized | Bacterial Biotransformation [21]: Compound NOT metabolized | Bacterial Biotransformation [22]: Compound NOT metabolized | Bacterial Biotransformation [23]: Compound NOT metabolized | Bacterial Biotransformation [24]: Compound NOT metabolized | Bacterial Biotransformation [25]: Compound NOT metabolized | Bacterial Biotransformation [26]: Compound metabolized | Bacterial Biotransformation [27]: Compound metabolized | Bacterial Biotransformation [28]: Compound metabolized | Bacterial Biotransformation [29]: Compound metabolized | Bacterial Biotransformation [30]: Compound metabolized | Bacterial Biotransformation [31]: Compound metabolized | Bacterial Biotransformation [32]: Compound metabolized | Bacterial Biotransformation [33]: Compound metabolized | Bacterial Biotransformation [34]: Compound metabolized | Bacterial Biotransformation [35]: Compound NOT metabolized | Bacterial Biotransformation [36]: Compound NOT metabolized | Bacterial Biotransformation [37]: Compound NOT metabolized
